tested on: HIV-1 pseudotyped virus; assay: HIV-1 pseudotyped virus assay (luciferase reporter gene, single cycle of infection); format: cell-based; conditions: Human immunodeficiency virus 1, CCR5, 72 h, read-out: Activity (antiviral activity, IC50)
How it was run: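 Single-cycle luciferase-reporter pseudovirus made by co-transfecting 293T cells with HIV-1 envelope plasmid plus env-defective, nef-replaced backbone; infects CD4/CCR5 or CXCR4 target cells. Compounds added before virus, serial dilutions in duplicate, two experiments; 3-day culture, lysis, luminescence. IC50 = 50% signal reduction interpolated from titration curve.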

`Cc1ccnc(-c2ccc(S(=O)(=O)N3CCN(C(=O)c4ccccc4)CC3C)s2)c1` (stereo not shown) [Example 138, (3-methyl-4-(5-(4-methylpyridin-2-yl)thiophen-2-ylsulfonyl)piperazin-1-yl)(phenyl)methanone] and `C[C@@H]1CN(C(=O)c2ccccc2)CCN1S(=O)(=O)c1ccc(-c2ccccn2)s1` [Example 168, [(R)-3-Methyl-4-(5-pyridinyl-2-yl-thiophene-2-sulfonyl)-piperazin-1-yl]-phenyl-methanone] cannot be ordered by IC50: over 5 µM for the first, over 5 µM for the second.

Compared with `COc1cc(OC)c(C(=O)C(=O)N2CCN(C(=O)c3ccccc3)C[C@H]2C)cn1` [Example 238], `COc1cc(C(=O)C(=O)N2CCN(C(=O)c3ccccc3)C[C@H]2C)ccc1-c1cnco1` [Example 175] is lower in IC50: over 5 µM for the first, under 5 µM for the second.

`CC1CN(C(=O)c2ccccc2)CCN1C(=O)C(=O)c1ccc(-c2ccn[nH]2)cc1` (stereo not shown) [Example 169, 1-(4-Benzoyl-2-methyl-piperazin-1-yl)-2-[4-(2H-pyrazol-3-yl)-phenyl]-ethane-1,2-dione] and `CC1CN(C(=O)c2ccccc2)CCN1C(=O)C(=O)c1ccc(-c2ccn(C)n2)cc1` (stereo not shown) [Example 172, 1-(4-Benzoyl-2-methyl-piperazin-1-yl)-2-[4-(1-methyl-1H-pyrazol-3-yl)-phenyl]-ethane-1,2-dione] cannot be ordered by IC50: under 5 µM for the first, under 5 µM for the second.

`Cc1cc(-c2ccc(C(=O)C(=O)N3CCN(C(=O)c4ccccc4)C[C@H]3C)c(Cl)c2)on1` [Example 209] and `Cc1cc(-c2ccc(C(=O)C(=O)N3CCN(C(=O)c4ccccc4)C[C@H]3C)cc2)on1` [Example 102, 1-((R)-4-Benzoyl-2-methyl-piperazin-1-yl)-2-[4-(3-methyl-isoxazol-5-yl)-phenyl]-ethane-1,2-dione] cannot be ordered by IC50: under 5 µM for the first, under 5 µM for the second.

Going from `CC1CN(C(=O)c2ccccc2)CCN1S(=O)(=O)c1ccc(-c2ccncc2)s1` (stereo not shown) [Example 153, (3-methyl-4-(5-(pyridin-4-yl)thiophen-2-ylsulfonyl)piperazin-1-yl)(phenyl)methanone] to `CC1CN(C(=O)c2ccccc2)CCN1S(=O)(=O)c1ccc(-c2ccc(C#N)cn2)s1` (stereo not shown) [Example 147], the IC50 falls from over 5 µM to under 5 µM. The second is the more potent here.

`C[C@@H]1CN(C(=O)c2ccccc2)CCN1C(=O)C(=O)c1ccc(-c2cc[nH]n2)c(Cl)c1N(C)C` [Example 221] and `C[C@@H]1CN(C(=O)c2ccccc2)CCN1C(=O)C(=O)c1ccc(-c2cc[nH]n2)cc1N` [Example 219, 1-((R)-4-Benzoyl-2-methyl-piperazin-1-yl)-2-[2-amino-4-(1H-pyrazol-3-yl)-phenyl]-ethane-1,2-dione] cannot be ordered by IC50: under 5 µM for the first, under 5 µM for the second.

`CC1CN(C(=O)c2ccccc2)CCN1S(=O)(=O)c1ccc(-n2cccn2)cc1` (stereo not shown) [Example 119, [3-Methyl-4-(4-pyrazol-1-yl-benzenesulfonyl)-piperazin-1-yl]-phenyl-methanone] and `CC1CN(C(=O)c2ccccc2)CCN1S(=O)(=O)c1ccc(-n2ccnn2)cc1` (stereo not shown) [Example 116, [3-Methyl-4-(4-[1,2,3]triazol-1-yl-benzenesulfonyl)-piperazin-1-yl]-phenyl-methanone] cannot be ordered by IC50: over 5 µM for the first, over 5 µM for the second.

`CC1CN(C(=O)c2ccccc2)CCN1S(=O)(=O)c1ccc(-c2nncc3ccccc23)s1` (stereo not shown) [Example 154, (3-methyl-4-(5-(phthalazin-1-yl)thiophen-2-ylsulfonyl)piperazin-1-yl)(phenyl)methanone] and `CC1CN(C(=O)c2ccccc2)CCN1S(=O)(=O)c1ccc(-c2ccc3ccccc3n2)s1` (stereo not shown) [Example 135, (3-methyl-4-(5-(quinolin-2-yl)thiophen-2-ylsulfonyl)piperazin-1-yl)(phenyl)methanone] cannot be ordered by IC50: over 5 µM for the first, over 5 µM for the second.

First: Cc1cc(-n2cccn2)ccc1C(=O)C(=O)N1CCN(C(=O)c2ccccc2)C[C@H]1C [Example 195, 1-((R)-4-Benzoyl-2-methyl-piperazin-1-yl)-2-(2-methyl-4-pyrazol-1-yl-phenyl)-ethane-1,2-dione]
Second: CC1CN(C(=O)c2ccccc2)CCN1C(=O)C(=O)c1ccc(-n2cccn2)cc1 (stereo not shown) [Example 240]
The IC50 of the first is higher: over 5 µM for the first, under 5 µM for the second.

`CC1CN(C(=O)c2ccccc2)CCN1C(=O)C(=O)c1ccc(-c2ccco2)cc1` (stereo not shown) [Example 171, 1-(4-Benzoyl-2-methyl-piperazin-1-yl)-2-(4-furan-2-yl-phenyl)-ethane-1,2-dione] and `C[C@@H]1CN(C(=O)c2ccccc2)CCN1C(=O)C(=O)c1ccc(-c2ncccn2)cc1` [Example 203] cannot be ordered by IC50: under 5 µM for the first, under 5 µM for the second.

`C[C@@H]1CN(C(=O)c2ccccc2)CCN1C(=O)C(=O)c1ccc(-c2nnn(C)n2)cc1` [Example 105, 1-((R)-4-Benzoyl-2-methyl-piperazin-1-yl)-2-[4-(2-methyl-2H-tetrazol-5-yl)-phenyl]-ethane-1,2-dione] and `C[C@@H]1CN(C(=O)c2ccccc2)CCN1C(=O)C(=O)c1ccc(-c2cscn2)cc1` [Example 177] cannot be ordered by IC50: under 5 µM for the first, under 5 µM for the second.

`COc1cc(-c2ccc(C(=O)C(=O)N3CCN(C(=O)c4ccccc4)C[C@H]3C)cc2)nc(OC)n1` [Example 202] and `Cc1ccc(-c2ccc(C(=O)C(=O)N3CCN(C(=O)c4ccccc4)C[C@H]3C)cc2)nc1` [Example 207] cannot be ordered by IC50: under 5 µM for the first, under 5 µM for the second.

`CC(C)Cn1cc(-c2ccc(S(=O)(=O)N3CCN(C(=O)c4ccccc4)C[C@H]3C)cc2)nn1` [Example 121, {(R)-4-[4-(1-Isobutyl-1H-[1,2,3]triazol-4-yl)-benzenesulfonyl]-3-methyl-piperazin-1-yl}-phenyl-methanone] and `CC1CN(C(=O)c2ccccc2)CCN1S(=O)(=O)c1ccc(-n2nccn2)cc1` (stereo not shown) [Example 117, [3-methyl-4-(4-[1,2,3]triazol-2-yl-benzenesulfonyl)-piperazin-1-yl]-phenyl-methanone] cannot be ordered by IC50: over 5 µM for the first, over 5 µM for the second.

`CC1CN(C(=O)c2ccccc2)CCN1S(=O)(=O)c1ccc(-c2cc(-n3ccnc3)ncn2)s1` (stereo not shown) [Example 152, (4-(5-(6-(1H-imidazol-1-yl)pyrimidin-4-yl)thiophen-2-ylsulfonyl)-3-methylpiperazin-1-yl)(phenyl)methanone] and `C[C@@H]1CN(C(=O)c2ccccc2)CCN1S(=O)(=O)c1ccc(-c2cn(Cc3ccccc3)nn2)s1` [Example 127, {(R)-4-[5-(1-Benzyl-1H-[1,2,3]triazol-4-yl)-thiophene-2-sulfonyl]-3-methyl-piperazin-1-yl}-phenyl-methanone] cannot be ordered by IC50: over 5 µM for the first, over 5 µM for the second.

`CC1CN(C(=O)c2ccccc2)CCN1S(=O)(=O)c1cccc(-n2cncn2)c1` (stereo not shown) [Example 114, [3-Methyl-4-(3-[1,2,4]triazol-1-yl-benzenesulfonyl)-piperazin-1-yl]-phenyl-methanone] and `CC1CN(C(=O)c2ccccc2)CCN1S(=O)(=O)c1cccc(-n2cccn2)c1` (stereo not shown) [Example 115, [3-Methyl-4-(3-pyrazol-1-yl-benzenesulfonyl)-piperazin-1-yl]-phenyl-methanone] cannot be ordered by IC50: over 5 µM for the first, over 5 µM for the second.

`C[C@@H]1CN(C(=O)c2ccccc2)CCN1S(=O)(=O)c1ccc(-c2cc(C(F)(F)F)on2)s1` [Example 167, [(R)-3-Methyl-4-(5-[(5-trifluoromethyl)-isoxazol-3-yl]-thiophene-2-sulfonyl)-piperazin-1-yl]-phenyl-methanone] and `C[C@@H]1CN(C(=O)c2ccccc2)CCN1S(=O)(=O)c1ccc(-c2cc(-c3ccccc3)no2)cc1` [Example 124, {(R)-3-Methyl-4-[4-(3-phenyl-isoxazol-5-yl)-benzenesulfonyl]-piperazin-yl}-phenyl-methanone] cannot be ordered by IC50: over 5 µM for the first, over 5 µM for the second.

`C[C@@H]1CN(C(=O)c2ccccc2)CCN1C(=O)C(=O)c1ccc(-c2ccc(C(F)(F)F)cn2)cc1` [Example 201] and `C[C@@H]1CN(C(=O)c2ccccc2)CCN1C(=O)C(=O)c1ccc(-c2cncs2)cc1` [Example 176] cannot be ordered by IC50: under 5 µM for the first, under 5 µM for the second.

First: COc1cc(-c2cc[nH]n2)c(Cl)cc1C(=O)C(=O)N1C2CCC1CN(C(=O)c1ccccc1)C2 [Example 237]
Second: COc1cc(-n2ccnn2)c(Cl)cc1C(=O)C(=O)N1CCN(C(=O)c2ccccc2)CC1 [Example 236]
The IC50 of the first is higher: over 5 µM for the first, under 5 µM for the second.

Work on `C[C@@H]1CN(C(=O)c2ccccc2)CCN1C(=O)C(=O)c1cccc(-c2cnco2)c1` [Example 251] yielded an IC50 of over 5 µM.

Source: patent US20070259879A1, “Piperazine and piperidine biaryl derivatives” (priority 2006, published 2007)
